Reference: patent US20210308084A1, “AGENT FOR IMPROVING MUSCLE QUALITY” (AJINOMOTO CO., INC., priority 2018, published 2021)

Tested on: mouse-derived muscle cell line C2C12 (myotube cells)
Assay: Evaluation of muscle insulin signal (pAkt Ser473/total Akt, Western blotting) in myotubes exposed to palmitic acid (FFA)
Type: cell-based
Conditions: FIG. 2; for muscle insulin signal lowered by FFA (phosphorylation index, [(pAkt/Total Akt) Insulin+]/[(pAkt/Total Akt) Insulin-]): amino acid 1 mM added simultaneously with 0.5 mM palmitic acid (FFA), 100 nM insulin stimulation; for action on muscle insulin signal compared with positive control NAC: amino acid 1 mM versus N-acetylcysteine (NAC) 5 mM, 0.5 mM FFA
Protocol: Using mouse C3H skeletal muscle myoblast (C2C12 cell) (DS Pharma Biomedical Co., Ltd.), the evaluation was performed. Induction of differentiation into myotube cells (Myotubes) was performed using cells with myoblast passage number of 12 to 18. Myoblasts were seeded in a 12-well (diameter=3 cm) plate at 0.3×10^5 to 0.5×10^5/well. After confirmation that the cell proliferation state reached 90% confluent, the medium was replaced with DMEM culture medium supplemented with 2(w/v) % horse serum (HS) and 1(w/v) % penicillin-streptomycin-[…](w/v) % HS, 1(w/v) % […](w/v) % Gln/DMEM), and differentiation into myotube cells (Myotubes) was induced. After confirmation of differentiation into myotube cells (Myotubes), a muscle insulin signal evaluation system was constructed, and the action of each of isoleucine, glycine, and cystine was evaluated using the constructed evaluation system. […] After culturing overnight, the cells were preincubated for about 2 hr in DMEM (BSA/FFA free) with an amino acid concentration of 1/5, stimulated by incubation (15 min-20 min) with 100 nM insulin, and the myotube cells were collected (each n=3). From the collected cells, proteins were extracted with RIPA (Radio-Immunoprecipitation Assay) buffer (Cell Signaling Technologies Inc.), adjusted to a final protein concentration of 0.5 mg/mL, and used as samples. The expression levels of phosphorylated Akt (pAkt) (Ser473) and [NT] in the above-mentioned sample were quantified by the Western blotting (WB) method using anti-phosphorylated Akt (pAkt) (Ser473) antibody (#92715; Cell Signaling Technologies Inc.) and anti-[NT] antibody (#9272S; Cell Signaling Technologies Inc.). The expression level of each protein was quantified using Western blot-chemiluminescent imaging system (Fusion FX) (Vilber-Lourmat Inc.). Each amino acid was added simultaneously with FFA, and the muscle quality-improving effect was examined with the recovery of the muscle insulin signal as an index. The final concentration of each amino acid was adjusted to 1 mM. As a positive control, an antioxidative active substance N-acetylcysteine (NAC) 5 mM was used. From the measurement results of the expression levels of phosphorylated Akt (Ser473) and total Akt, the ratio of phosphorylated Akt and total Akt with insulin stimulation to the ratio of phosphorylated Akt and total Akt without insulin stimulation [(pAkt/Total Akt) Insulin+]/[(pAkt/Total Akt) Insulin-] was determined and shown in FIG. 2 as the phosphorylation index (stimulation index). In FIG. 2, the phosphorylation index is shown as mean±standard error for each sample.

Row | SMILES | muscle insulin signal lowered by FFA (phosphorylation index, [(pAkt/Total Akt) Insulin+]/[(pAkt/Total Akt) Insulin-]) | action on muscle insulin signal compared with positive control NAC
1 | N[C@@H](CSSC[C@H](N)C(=O)O)C(=O)O [cystine, L-cystine] | restore the muscle insulin signal lowered by FFA | equal to or higher than that of NAC
2 | NCC(=O)O [glycine] | restore the muscle insulin signal lowered by FFA | equal to or higher than that of NAC
3 | CC[C@H](C)[C@H](N)C(=O)O [isoleucine, L-isoleucine] | restore the muscle insulin signal lowered by FFA | equal to or higher than that of NAC
